Experimental data: ChEMBL document CHEMBL1201862, “PubChem BioAssay data set” (2004)
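Briefly, cells in 96-well plates were exposed to five compound concentrations for 48 h, and endpoints were estimated by linear interpolation. The concentration for 50% growth inhibition is given as GI50.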 Active and inactive are the calls of the source. No stated cut-off is given here; in the data, active = GI50 up to about 1.1 µM and inactive = higher.

How the values were obtained:
Assay in all cases: DTP human tumour cell line panel, 48 h
ACHN = test system: ACHN
DU-145 = test system: DU-145
HCT-116 = test system: HCT-116
HOP-62 = test system: HOP-62
HT-29 = test system: HT-29
Hs-578T = test system: Hs-578T
M14 = test system: M14
MCF7 = test system: MCF7
NCI-H226 = test system: NCI-H226
NCI-H522 = test system: NCI-H522
OVCAR-8 = test system: OVCAR-8
RPMI-8226 = test system: RPMI-8226
SK-MEL-5 = test system: SK-MEL-5
SK-OV-3 = test system: SK-OV-3
SN12C = test system: SN12C
SNB-75 = test system: SNB-75
UACC-62 = test system: UACC-62
UO-31 = test system: UO-31
HL-60 = test system: HL-60
SR = test system: SR

Compound | GI50 (ACHN) | GI50 (DU-145) | GI50 (HCT-116) | GI50 (HOP-62) | GI50 (HT-29) | GI50 (Hs-578T) | GI50 (M14) | GI50 (MCF7) | GI50 (NCI-H226) | GI50 (NCI-H522) | GI50 (OVCAR-8) | GI50 (RPMI-8226) | GI50 (SK-MEL-5) | GI50 (SK-OV-3) | GI50 (SN12C) | GI50 (SNB-75) | GI50 (UACC-62) | GI50 (UO-31) | GI50 (HL-60) | GI50 (SR)
O=C1NC(=O)c2ccc([N+](=O)[O-])c3cccc1c23 | 19 µM (inactive) | 34 µM (inactive) | 11.7 µM (inactive) | 20 µM (inactive) | 16 µM (inactive) | 25.2 µM (inactive) | 14.8 µM (inactive) | 11.2 µM (inactive) | 14.3 µM (inactive) | 2.01 µM (inactive) | 12.6 µM (inactive) | 14.5 µM (inactive) | 18.9 µM (inactive) | 23.1 µM (inactive) | 17.4 µM (inactive) | 40.1 µM (inactive) | 13.9 µM (inactive) | 16.3 µM (inactive) | – | –
Cc1cc(C[C@H]2O[C@@H]3OC(C)(C)O[C@@H]3[C@H]3OC(C)(C)O[C@H]32)c2ccccc2n1 | > 100 µM (inactive) | > 100 µM (inactive) | 72.6 µM (inactive) | 55.3 µM (inactive) | > 100 µM (inactive) | 26.4 µM (inactive) | – | – | 55.3 µM (inactive) | 16 µM (inactive) | 43.1 µM (inactive) | 27.1 µM (inactive) | 55.6 µM (inactive) | > 100 µM (inactive) | > 100 µM (inactive) | > 100 µM (inactive) | > 100 µM (inactive) | 33.3 µM (inactive) | 27.5 µM (inactive) | 34.8 µM (inactive)
CCO/C=N/C1=C(C#N)C(c2ccc(OC)c(OC)c2)c2c(-c3ccccc3)nn(-c3ccccc3)c2O1 (configuration not stated) | 13.2 µM (inactive) | 14.6 µM (inactive) | 13.1 µM (inactive) | 17.7 µM (inactive) | 19.1 µM (inactive) | 20.5 µM (inactive) | 21.4 µM (inactive) | 16.6 µM (inactive) | 11.3 µM (inactive) | 10.6 µM (inactive) | 19.2 µM (inactive) | 21.4 µM (inactive) | 12 µM (inactive) | 21.2 µM (inactive) | 14.8 µM (inactive) | 15.5 µM (inactive) | 14.4 µM (inactive) | 17.7 µM (inactive) | 3.21 µM (inactive) | –
CC1(C)[C@@H](Cn2cnc3c(Cl)nc(N)nc32)CC[C@@]1(C)CO | > 100 µM (inactive) | > 100 µM (inactive) | 34.3 µM (inactive) | > 100 µM (inactive) | – | 19.7 µM (inactive) | 40.3 µM (inactive) | > 100 µM (inactive) | 12.7 µM (inactive) | – | – | 24.2 µM (inactive) | 18.7 µM (inactive) | > 100 µM (inactive) | 57.3 µM (inactive) | > 100 µM (inactive) | 20 µM (inactive) | 3.74 µM (inactive) | – | –
O=C(/C=C\Nc1ccccc1O)C(Cl)(Cl)Cl | 26.9 µM (inactive) | 45.8 µM (inactive) | 37.8 µM (inactive) | 24.1 µM (inactive) | 36.1 µM (inactive) | 69 µM (inactive) | 38.9 µM (inactive) | 20.8 µM (inactive) | > 100 µM (inactive) | 22.6 µM (inactive) | 35.9 µM (inactive) | 25.3 µM (inactive) | > 100 µM (inactive) | 53.2 µM (inactive) | 72.8 µM (inactive) | 30.3 µM (inactive) | < 0.01 µM (active) | 25.1 µM (inactive) | 21.8 µM (inactive) | –
COC(=O)C(Nc1ccc(OC)cc1)c1ccccc1 (configuration not stated) | > 100 µM (inactive) | > 100 µM (inactive) | > 100 µM (inactive) | > 100 µM (inactive) | > 100 µM (inactive) | > 100 µM (inactive) | > 100 µM (inactive) | > 100 µM (inactive) | – | > 100 µM (inactive) | > 100 µM (inactive) | 83.9 µM (inactive) | > 100 µM (inactive) | – | > 100 µM (inactive) | – | > 100 µM (inactive) | > 100 µM (inactive) | – | > 100 µM (inactive)
COc1ccc(C2CC3(c4ccccc4)ON=C(c4ccccc4)N3c3ccccc3S2)cc1 (configuration not stated) | > 100 µM (inactive) | > 100 µM (inactive) | > 100 µM (inactive) | > 100 µM (inactive) | > 100 µM (inactive) | > 100 µM (inactive) | > 100 µM (inactive) | > 100 µM (inactive) | > 100 µM (inactive) | > 100 µM (inactive) | > 100 µM (inactive) | > 100 µM (inactive) | > 100 µM (inactive) | > 100 µM (inactive) | > 100 µM (inactive) | > 100 µM (inactive) | > 100 µM (inactive) | 51.2 µM (inactive) | – | –
CC1=C(C(=O)Nc2cccc3c2C(=O)NC3=O)CC(C(=O)Nc2cccc3c2C(=O)NC3=O)=C(C)N1 | > 100 µM (inactive) | > 100 µM (inactive) | > 100 µM (inactive) | > 100 µM (inactive) | – | > 100 µM (inactive) | > 100 µM (inactive) | > 100 µM (inactive) | – | > 100 µM (inactive) | – | > 100 µM (inactive) | > 100 µM (inactive) | > 100 µM (inactive) | > 100 µM (inactive) | 88.3 µM (inactive) | > 100 µM (inactive) | > 100 µM (inactive) | > 100 µM (inactive) | > 100 µM (inactive)
C=CCc1[nH]c2c(OCc3ccccc3)cc(N(CC=C)C(C)=O)cc2c1C | 12.8 µM (inactive) | 14.1 µM (inactive) | 12.3 µM (inactive) | 17.1 µM (inactive) | 8.04 µM (inactive) | 14.2 µM (inactive) | 10.1 µM (inactive) | 12.4 µM (inactive) | 17.6 µM (inactive) | 13 µM (inactive) | 13.2 µM (inactive) | 12.1 µM (inactive) | 11.8 µM (inactive) | 16.4 µM (inactive) | 16 µM (inactive) | 10.7 µM (inactive) | 14 µM (inactive) | 9.08 µM (inactive) | 12.8 µM (inactive) | –
COc1ccc2nc(NCN3C(=O)c4ccccc4C3=O)sc2c1 | > 100 µM (inactive) | > 100 µM (inactive) | > 100 µM (inactive) | > 100 µM (inactive) | > 100 µM (inactive) | > 100 µM (inactive) | > 100 µM (inactive) | > 100 µM (inactive) | – | > 100 µM (inactive) | > 100 µM (inactive) | > 100 µM (inactive) | > 100 µM (inactive) | > 100 µM (inactive) | > 100 µM (inactive) | > 100 µM (inactive) | > 100 µM (inactive) | > 100 µM (inactive) | > 100 µM (inactive) | –
Cc1ccc(C(=O)/C=C2\Nc3ccccc3N=C2NC23CC4CC(CC(C4)C2)C3)cc1 | > 10 µM (inactive) | > 10 µM (inactive) | > 10 µM (inactive) | > 10 µM (inactive) | > 10 µM (inactive) | > 10 µM (inactive) | > 10 µM (inactive) | > 10 µM (inactive) | – | > 10 µM (inactive) | > 10 µM (inactive) | > 10 µM (inactive) | > 10 µM (inactive) | > 10 µM (inactive) | > 10 µM (inactive) | > 10 µM (inactive) | > 10 µM (inactive) | – | > 10 µM (inactive) | > 10 µM (inactive)
CC(C)C1=CC23CCC4C(C)(C(=O)O)CCCC4(C)C2CC1C1C(=O)N(c2ccc(C(=O)O)cc2)C(=O)C13 (configuration not stated) | > 100 µM (inactive) | > 100 µM (inactive) | > 100 µM (inactive) | > 100 µM (inactive) | > 100 µM (inactive) | > 100 µM (inactive) | > 100 µM (inactive) | > 100 µM (inactive) | > 100 µM (inactive) | > 100 µM (inactive) | > 100 µM (inactive) | > 100 µM (inactive) | > 100 µM (inactive) | > 100 µM (inactive) | > 100 µM (inactive) | > 100 µM (inactive) | > 100 µM (inactive) | > 100 µM (inactive) | > 100 µM (inactive) | –
Cc1cc(C)c2c(n1)S(=O)(=O)N(CCCN1CCN(c3cccc(Cl)c3)CC1)C(C(=O)c1ccccc1)=C2O | 30.6 µM (inactive) | 36.7 µM (inactive) | 24.2 µM (inactive) | 36.6 µM (inactive) | 30.8 µM (inactive) | 65.8 µM (inactive) | 25.6 µM (inactive) | 29.8 µM (inactive) | – | 24.8 µM (inactive) | 36.6 µM (inactive) | – | 21.6 µM (inactive) | 33.7 µM (inactive) | 20 µM (inactive) | – | 36.1 µM (inactive) | 19.2 µM (inactive) | 31.6 µM (inactive) | 17.1 µM (inactive)
O=C(O)/C(O)=C\C(=O)c1ccc(Br)cc1 | > 100 µM (inactive) | > 100 µM (inactive) | > 100 µM (inactive) | > 100 µM (inactive) | > 100 µM (inactive) | > 100 µM (inactive) | > 100 µM (inactive) | > 100 µM (inactive) | > 100 µM (inactive) | > 100 µM (inactive) | > 100 µM (inactive) | > 100 µM (inactive) | > 100 µM (inactive) | > 100 µM (inactive) | > 100 µM (inactive) | > 100 µM (inactive) | > 100 µM (inactive) | > 100 µM (inactive) | > 100 µM (inactive) | –
c1ccc2sc(SCSc3nc4ccccc4s3)nc2c1 | 74.8 µM (inactive) | > 100 µM (inactive) | 34.1 µM (inactive) | > 100 µM (inactive) | 72.1 µM (inactive) | > 100 µM (inactive) | > 100 µM (inactive) | – | > 100 µM (inactive) | 57.8 µM (inactive) | > 100 µM (inactive) | 51.5 µM (inactive) | 30.1 µM (inactive) | – | > 100 µM (inactive) | > 100 µM (inactive) | 71 µM (inactive) | 86.1 µM (inactive) | – | 7.08 µM (inactive)
